# Reference: PubChem BioAssay AID256 (DTP/NCI, 2004)
# Several values for one entry are separate records, joined by “and”; a condition that tells them apart may be missing. Identical values can stand only once. Toxic doses and inconclusive results are not listed.
# Tested on: CD2F1 mice, L1210 leukemia ip, survival T/C
# Test: NCI In Vivo Anticancer Drug Screen. Data for tumor model L1210 Leukemia (intraperitoneal) in CD2F1 (CDF1) mice
# Settings: higher = longer survival
# Procedure, shortened: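 Activity against a transplanted murine tumor was judged by comparing the compound group with a vehicle group. The outcome in the treated animals was divided by that in the controls.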
# [1] = endpoint: mean survival time, dose: 25.0 mg/kg/injection, schedule: Q01DX009 (ip), vehicle: water
# [2] = endpoint: mean survival time, dose: 100.0 mg/kg/injection, schedule: Q04DX002 (ip), vehicle: saline with Tween-80
# [3] = endpoint: mean survival time, dose: 200.0 mg/kg/injection, schedule: Q04DX002 (ip), vehicle: saline with Tween-80
# [4] = endpoint: mean survival time, dose: 400.0 mg/kg/injection, schedule: Q04DX002 (ip), vehicle: saline with Tween-80
# [5] = endpoint: mean survival time, dose: 100.0 mg/kg/injection, schedule: Q01DX009 (ip), vehicle: saline with Tween-80
# [6] = endpoint: mean survival time, dose: 100.0 mg/kg/injection, schedule: Q04DX003 (ip), vehicle: saline with Tween-80
# [7] = endpoint: mean survival time, dose: 200.0 mg/kg/injection, schedule: Q01DX009 (ip), vehicle: saline with Tween-80
# [8] = endpoint: mean survival time, dose: 200.0 mg/kg/injection, schedule: Q04DX003 (ip), vehicle: saline with Tween-80
# [9] = endpoint: mean survival time, dose: 400.0 mg/kg/injection, schedule: Q01DX009 (ip), vehicle: saline with Tween-80
# [10] = endpoint: mean survival time, dose: 400.0 mg/kg/injection, schedule: Q04DX003 (ip), vehicle: saline with Tween-80
# [11] = endpoint: mean survival time, dose: 100.0 mg/kg/injection, schedule: Q01DX001 (ip), vehicle: saline with Tween-80
# [12] = endpoint: mean survival time, dose: 200.0 mg/kg/injection, schedule: Q01DX001 (ip), vehicle: saline with Tween-80
# [13] = endpoint: mean survival time, dose: 400.0 mg/kg/injection, schedule: Q01DX001 (ip), vehicle: saline with Tween-80
structure (smiles),measurement,setting,value
Cc1cccc2c(=O)c3ccccc3oc12,T/C,"endpoint: mean survival time, dose: 100.0 mg/kg/injection, schedule: Q04DX003 (ip), vehicle: saline",102 % of control
same,T/C,"endpoint: mean survival time, dose: 200.0 mg/kg/injection, schedule: Q04DX003 (ip), vehicle: saline",102 % of control
same,T/C,"endpoint: mean survival time, dose: 400.0 mg/kg/injection, schedule: Q04DX003 (ip), vehicle: saline",104 % of control
Cc1ccc(C(=Nc2ccccc2)N=P(c2ccccc2)(c2ccccc2)c2ccccc2)cc1,T/C,"endpoint: median survival time, dose: 12.5 mg/kg/injection, schedule: Q01DX005 (ip), vehicle: saline with Tween-80",102 % of control
same,T/C,"endpoint: median survival time, dose: 25.0 mg/kg/injection, schedule: Q01DX005 (ip), vehicle: saline with Tween-80",105 % of control
same,T/C,"endpoint: median survival time, dose: 50.0 mg/kg/injection, schedule: Q01DX005 (ip), vehicle: saline with Tween-80",105 % of control
same,T/C,"endpoint: median survival time, dose: 100.0 mg/kg/injection, schedule: Q01DX005 (ip), vehicle: saline with Tween-80",91 % of control
CC1(C)CC(OP(=O)(OC2CC(C)(C)N(O)C(C)(C)C2)N2CC2)CC(C)(C)N1O,T/C,"endpoint: mean survival time, dose: 12.5 mg/kg/injection, schedule: Q01DX009 (ip), vehicle: water",102 % of control
same,T/C,[1],113 % of control and 104 % of control
same,T/C,"endpoint: mean survival time, dose: 50.0 mg/kg/injection, schedule: Q01DX009 (ip), vehicle: water",110 % of control
same,T/C,"endpoint: mean survival time, dose: 100.0 mg/kg/injection, schedule: Q01DX009 (ip), vehicle: water",112 % of control
CCOC(=O)c1c(C)oc2cc3c(C(=O)OCC)c(C)oc3cc12,T/C,"endpoint: mean survival time, dose: 100.0 mg/kg/injection, schedule: Q01DX001 (ip), vehicle: Klucel (hydroxypropylcellulose) (HPC)",90 % of control
same,T/C,"endpoint: mean survival time, dose: 200.0 mg/kg/injection, schedule: Q01DX001 (ip), vehicle: Klucel (hydroxypropylcellulose) (HPC)",95 % of control
same,T/C,"endpoint: mean survival time, dose: 400.0 mg/kg/injection, schedule: Q01DX001 (ip), vehicle: Klucel (hydroxypropylcellulose) (HPC)",93 % of control
N=c1ccn2c(n1)OC1C(O)C(CO)OC12 (configuration not stated),T/C,"endpoint: mean survival time, dose: 37.5 mg/kg/injection, schedule: Q01DX005 (ip), vehicle: saline",151 % of control
same,T/C,"endpoint: mean survival time, dose: 53.0 mg/kg/injection, schedule: Q01DX009 (ip), vehicle: saline",246 % of control
same,T/C,"endpoint: mean survival time, dose: 75.0 mg/kg/injection, schedule: Q01DX005 (ip), vehicle: saline",152 % of control and 173 % of control
same,T/C,"endpoint: mean survival time, dose: 79.0 mg/kg/injection, schedule: Q01DX009 (ip), vehicle: saline",247 % of control
same,T/C,[2],151 % of control
same,T/C,"endpoint: mean survival time, dose: 119.0 mg/kg/injection, schedule: Q01DX009 (ip), vehicle: saline",331 % of control
same,T/C,"endpoint: mean survival time, dose: 150.0 mg/kg/injection, schedule: Q01DX005 (ip), vehicle: saline",160 % of control and 171 % of control
same,T/C,"endpoint: mean survival time, dose: 178.0 mg/kg/injection, schedule: Q01DX009 (ip), vehicle: saline",341 % of control
same,T/C,[3],158 % of control
same,T/C,"endpoint: mean survival time, dose: 300.0 mg/kg/injection, schedule: Q01DX005 (ip), vehicle: saline",205 % of control and 221 % of control
same,T/C,[4],205 % of control
same,T/C,"endpoint: mean survival time, dose: 600.0 mg/kg/injection, schedule: Q01DX005 (ip), vehicle: saline",271 % of control and 274 % of control
same,T/C,"endpoint: median survival time, dose: 200.0 mg/kg/injection, schedule: Q01DX009 (ip), vehicle: water",375 % of control
same,T/C,"endpoint: median survival time, dose: 500.0 mg/kg/injection, schedule: Q01DX009 (ip), vehicle: water",93 % of control
same,T/C,"endpoint: median survival time, dose: 600.0 mg/kg/injection, schedule: Q01DX009 (ip), vehicle: water",105 % of control
O=C(O)/C=C\C(=O)Nc1ccc(Cl)cc1,T/C,[5],102 % of control
same,T/C,[6],108 % of control
same,T/C,[7],93 % of control
same,T/C,[8],97 % of control
same,T/C,[9],98 % of control
same,T/C,[10],94 % of control
Cc1nc2c(c(-c3ccccc3)n1)Cc1c(ccc3ccccc13)O2,T/C,"endpoint: mean survival time, dose: 100.0 mg/kg/injection, schedule: Q01DX001 (ip), vehicle: saline",92 % of control
same,T/C,"endpoint: mean survival time, dose: 200.0 mg/kg/injection, schedule: Q01DX001 (ip), vehicle: saline",98 % of control
same,T/C,"endpoint: mean survival time, dose: 400.0 mg/kg/injection, schedule: Q01DX001 (ip), vehicle: saline",103 % of control
CCC(C)OC(=O)Nc1ccccc1 (configuration not stated),T/C,[5],96 % of control
same,T/C,[6],94 % of control
same,T/C,[7],98 % of control
same,T/C,[8],94 % of control
same,T/C,[9],98 % of control
same,T/C,[10],94 % of control
Clc1nnc(Cl)c(Cl)c1Cl,T/C,"endpoint: mean survival time, dose: 1.56 mg/kg/injection, schedule: Q04DX003 (ip), vehicle: saline with Tween-80",88 % of control
same,T/C,"endpoint: mean survival time, dose: 3.13 mg/kg/injection, schedule: Q04DX003 (ip), vehicle: saline with Tween-80",88 % of control
O=C(O)CC(Nc1sc([N+](=O)[O-])cc1[N+](=O)[O-])C(=O)O (configuration not stated),T/C,[11],98 % of control
same,T/C,[12],105 % of control
same,T/C,[13],102 % of control
CCOC(=O)CC1(O)CCCCC1,T/C,[5],101 % of control
same,T/C,[6],100 % of control
same,T/C,[7],101 % of control
same,T/C,[8],101 % of control
same,T/C,[9],100 % of control
same,T/C,[10],97 % of control
COc1ccc(C=Nc2ccc3c(c2)OCO3)cc1Br,T/C,"endpoint: mean survival time, dose: 25.0 mg/kg/injection, schedule: Q01DX009 (ip), vehicle: saline with Tween-80",98 % of control
same,T/C,"endpoint: mean survival time, dose: 50.0 mg/kg/injection, schedule: Q01DX009 (ip), vehicle: saline with Tween-80",97 % of control
same,T/C,[5],103 % of control
COc1ccc(NC(=O)Nc2ccc(OC)cc2OC)cc1,T/C,[2],86 % of control
same,T/C,[3],90 % of control
same,T/C,[4],86 % of control
COc1ccc(Cl)cc1[N+](=O)[O-],T/C,[6],97 % of control
same,T/C,[8],94 % of control
same,T/C,[10],95 % of control
O=C(NCCCl)Nc1ccccc1Cl,T/C,[11],90 % of control
same,T/C,[12],94 % of control
same,T/C,[13],98 % of control
N#CC1(c2ccc(Cl)cc2)CCC1,T/C,"endpoint: mean survival time, dose: 100.0 mg/kg/injection, schedule: Q01DX009 (ip), vehicle: saline sonified",102 % of control
same,T/C,[6],101 % of control
same,T/C,"endpoint: mean survival time, dose: 200.0 mg/kg/injection, schedule: Q01DX009 (ip), vehicle: saline sonified",92 % of control
same,T/C,[8],101 % of control
same,T/C,"endpoint: mean survival time, dose: 400.0 mg/kg/injection, schedule: Q01DX009 (ip), vehicle: saline sonified",105 % of control
same,T/C,[10],100 % of control
O=C1C=C(NCCO)C(=O)C=C1NCCO,T/C,[11],98 % of control
same,T/C,[12],90 % of control
same,T/C,[13],95 % of control
C1CC[N-]CC1.[Cl][Pt+2][Cl].[NH-]C1CC1,T/C,"endpoint: mean survival time, dose: 3.0 mg/kg/injection, schedule: Q04DX003 (ip), vehicle: water",100 % of control
same,T/C,"endpoint: mean survival time, dose: 6.25 mg/kg/injection, schedule: Q01DX009 (ip), vehicle: distilled water + Tween-80",120 % of control
same,T/C,"endpoint: mean survival time, dose: 6.25 mg/kg/injection, schedule: Q01DX009 (ip), vehicle: water",118 % of control
same,T/C,[1],119 % of control
same,T/C,"endpoint: mean survival time, dose: 25.0 mg/kg/injection, schedule: Q04DX003 (ip), vehicle: distilled water + Tween-80",90 % of control
same,T/C,"endpoint: mean survival time, dose: 25.0 mg/kg/injection, schedule: Q04DX003 (ip), vehicle: water",90 % of control
